Assay results published in ChEMBL document CHEMBL1125055, “Tricyclic heteroaromatic systems. [1]benzopyranopyrrol-4-ones and [1]benzopyrano-1,2,3-triazol-4-ones as benzodiazepine receptor ligands. Synthesis and structure-activity relationships” (J Med Chem, 1990).

What was measured:
[1] = molecular target: GABA-A receptor; anion channel (Bos taurus) (UniProt P10063+P08220+P20237+P08219+P10064+P22300); experiment: Percent inhibition of [3H]flunitrazepam binding to GABA-A Benzodiazepine receptor of bovine brain membranes at 34 uM; format: cell membranes
[2] = molecular target: GABA-A receptor; anion channel; experiment: Affinity to displace [3H]flunitrazepam from Benzodiazepine receptor in bovine brain membrane; format: cell membranes

Cc1cccc(-n2nnc3c(=O)oc4ccccc4c32)c1
inhibition [1]: 18%

O=c1oc2ccccc2c2c1c(-c1ccccc1)cn2-c1ccccc1
IC50 [2]: 65 nM

O=c1oc2ccccc2c2c1nnn2-c1ccccc1
inhibition [1]: 0%

COc1ccc(-n2cc(-c3ccccc3)c3c(=O)oc4ccccc4c32)cc1
IC50 [2]: 62 nM

Cc1cc(C)cc(-n2cc(-c3ccccc3)c3c(=O)oc4ccccc4c32)c1
IC50 [2]: 8.6 nM

COC(=O)c1cc2c(cn1)[nH]c1ccccc12 [BETA-CCM]
IC50 [2]: 16 nM

O=c1oc2ccccc2c2c1c(-c1ccccc1)cn2-c1cccc(Cl)c1
IC50 [2]: 10 nM

COc1cccc(-n2nc(C)c3c(O)nc4ccccc4c32)c1
IC50 [2]: 7500 nM

Cc1ccc(-n2cc(-c3ccccc3)c3c(=O)oc4ccccc4c32)cc1
IC50 [2]: 172 nM

O=c1oc2ccccc2c2c1cc(-c1ccccc1)n2-c1ccccc1
inhibition [1]: 30%

CN1C(=O)CN=C(c2ccccc2)c2cc(Cl)ccc21 [DIAZEPAM]
IC50 [2]: 13 nM

COc1cccc(-n2cc(-c3ccccc3)c3c(=O)oc4ccccc4c32)c1
IC50 [2]: 48 nM

Cn1c(=O)c2c(-c3ccccc3)nn(-c3cccc(Cl)c3)c2c2ccccc21
IC50 [2]: 70 nM

Cc1cccc(-n2cc(-c3ccccc3)c3c(=O)oc4ccccc4c32)c1
IC50 [2]: 25 nM

O=c1oc2ccccc2c2c1c(-c1ccccc1)cn2-c1ccc(Cl)cc1
IC50 [2]: 40 nM

Cc1cccc(-n2nc(-c3ccccc3)c3c(=O)n(C)c4ccccc4c32)c1
IC50 [2]: 90 nM

Cc1nn(-c2cccc(Br)c2)c2c1c(O)nc1ccccc12
IC50 [2]: 2500 nM
